Values of other authors, collected in US20020128208A1, “Nonpeptide agonists and antagonists of vasopressin receptors” (priority 2000, published 2002).

Molecular target: V2, V1a or both receptor
Details: prior-art antagonists disclosed by other companies; receptor subtype and species not stated

SMILES	Ki [nM]
CC(C)(C)NC(=O)c1ccc(S(=O)(=O)N2C(=O)C3(CCC(OCCN4CCOCC4)CC3)c3ccccc32)cc1 (stereo not shown) [SR121463A]	1.42
Cc1ccc(F)cc1C(=O)Nc1ccc(C(=O)N2Cc3cccn3Cc3ccccc32)c(Cl)c1 [VPA-985]	0.5
Cc1ccccc1C(=O)Nc1ccc(C(=O)N2CCCC(N(C)C)c3ccccc32)cc1 (stereo not shown) [OPC-31260]	21.7
Cc1ccc(F)cc1C(=O)Nc1ccc(C(=O)N2Cc3cccn3Cc3ccccc32)c(Cl)c1 [YM35087]	1.8
